Experimental data published in patent publication US20130079345A1, “[…] ACTIVE DISUBSTITUTED TRIAZINE DERIVATIVES” (BAYER INTELLECTUAL PROPERTY GMBH, priority 2010, published 2013).

What was measured:
CDK2/CyclinA [1] = target: T1, CDK2/CyclinA (Homo sapiens, UniProt P24941); test: LanthaScreen Eu Kinase Binding Assay, CDK2; conditions: tracer 236, read-out: Affinity (Kd) CDK2
T1 construct: purchased Proqinase
Experimental: (§1) This protocol describes how the LanthaScreen Eu Kinase Binding Assay was performed to determine dissociation constants (Kd) of compounds of general formula (I) and CDK/Cyclin complexes. The principle behind this assay is based upon the binding and displacement of an Alexa Fluor 647-labeled tracer, which binds to the active site of kinases. Binding of the tracer to the kinase is detected using a Eu-labeled antibody. Simultaneous binding of both the tracer and antibody to the kinase gives rise to a FRET-signal. Binding of an inhibitor to the kinase competes for binding with the tracer, resulting in a loss of FRET.
(§2) The compounds of general formula (I) summarized in Table 1 were diluted from a 10 mM DMSO stock solution 1:10 in a total volume of 15 μL DMSO. This compound predilution was then serial diluted 1:3 over 8 steps in DMSO and briefly spun down. Each compound solution was now diluted 1:33.33 in kinase buffer (HEPES: 20 mM, pH: 8.0; MgCl2: 10 mM; DTT: 1 mM; Brij-35: 0.01%), mixed thoroughly and spun down. For every sample, 5 μL of the diluted compound were mixed with 5 μL tracer working solution (e.g. 60 nM tracer 236 in kinase buffer for CDK2/Cyclin A) and 5 μL CDK/Cyclin/Anti-GST-AB-working solution (e.g. 15 nM CDK2/Cyclin A, 1:250 dilution of Anti-GST-AB in kinase buffer) in a well of a small volume 384 well plate (Corning Incorporated, Corning, N.Y., USA; order no. 3673). […] For positive controls, in each well 5 μL of DMSO working solution (3% DMSO diluted in kinase buffer) was mixed with 5 μL CDK/Cyclin/Anti-GST-AB-working solution: (e.g. 15 nM CDK2/Cyclin A, 1:250 dilution of Anti-GST-AB in kinase buffer) and 5 μL Tracer working solution (e.g. 60 nM Tracer 236 in kinase buffer for CDK2/Cyclin A). Positive and negative controls were calculated from at least 8 different sample wells. The 384 well plates were mixed in a Teleshaker plate mixer (Beckman Coulter, Brea, Calif., USA) at 2000 rpm for 40 sec, and incubated for 1 h at room temperature before reading. The FRET signal was measured at 340 nm excitation, 665 nm and 615 nm emission (for the kinase tracer and LanthaScreen Eu-AB, respectively) with an Envision spectrophotometer (Perkin Elmer, Waltham, Mass., USA) with 50 μs delay and 300 μs integration time. Kd values were determined from the sigmoidal dose response curves with the software Quattro Workflow (Quattro GmbH, Munich, Germany).

CDK7/CyclinH/Mat1 [2] = target: T2, CDK7/CyclinH/Mat1 (Homo sapiens, UniProt P50613); test: LanthaScreen Eu Kinase Binding Assay, CDK7; conditions: tracer 236, read-out: Affinity (Kd) CDK7
T2 construct: purchased Carna Biosciences
T2 sequence (P50613 whole entry): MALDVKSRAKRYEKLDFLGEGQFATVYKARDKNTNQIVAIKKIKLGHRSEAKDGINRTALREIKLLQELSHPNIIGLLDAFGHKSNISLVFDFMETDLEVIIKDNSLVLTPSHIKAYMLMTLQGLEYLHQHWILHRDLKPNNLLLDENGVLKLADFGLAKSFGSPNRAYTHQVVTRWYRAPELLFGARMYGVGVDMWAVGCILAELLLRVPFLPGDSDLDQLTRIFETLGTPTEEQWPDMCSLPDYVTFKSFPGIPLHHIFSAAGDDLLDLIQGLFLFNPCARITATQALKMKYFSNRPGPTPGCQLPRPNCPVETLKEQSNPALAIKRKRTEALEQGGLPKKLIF
T2 sequence (P51946 whole entry partner): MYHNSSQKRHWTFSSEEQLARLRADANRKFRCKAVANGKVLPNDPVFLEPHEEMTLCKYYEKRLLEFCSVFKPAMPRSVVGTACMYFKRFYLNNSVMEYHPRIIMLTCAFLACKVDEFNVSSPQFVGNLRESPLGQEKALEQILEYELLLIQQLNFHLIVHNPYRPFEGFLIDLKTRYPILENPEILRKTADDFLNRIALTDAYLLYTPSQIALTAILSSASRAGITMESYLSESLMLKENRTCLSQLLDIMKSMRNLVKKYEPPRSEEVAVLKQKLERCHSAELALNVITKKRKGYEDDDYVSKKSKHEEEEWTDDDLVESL
T2 sequence (P51948 whole entry partner): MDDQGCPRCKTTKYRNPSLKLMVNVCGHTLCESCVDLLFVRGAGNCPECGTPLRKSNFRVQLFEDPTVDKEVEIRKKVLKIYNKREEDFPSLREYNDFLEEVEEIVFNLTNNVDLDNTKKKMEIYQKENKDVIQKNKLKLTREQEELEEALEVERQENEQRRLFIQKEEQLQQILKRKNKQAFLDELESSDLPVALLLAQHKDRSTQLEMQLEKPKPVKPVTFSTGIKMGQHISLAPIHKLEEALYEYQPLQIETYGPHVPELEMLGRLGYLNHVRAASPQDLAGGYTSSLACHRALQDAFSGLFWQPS
Experimental: as §1, §2

CDK7/CyclinH/Mat1 [3] = target: T2, CDK7/CyclinH/Mat1; test: Lance Ultra KinaSelect Assay, CDK7; assay type: biochemical; conditions: ATP 25 μM, read-out: Inhibition (IC50) CDK7
Experimental: (§3) This protocol describes how the Lance Ultra KinaSelect Assay was performed to determine half maximal inhibitory concentration (IC50) of compounds of general formula (I) and CDK/Cyclin complexes. The principle behind this enzymatic assay is based upon the phosphorylation of the ULight-Peptide Substrat. It is detected by using a specific EU-labeled anti-phospho peptide antibody. The binding of the Eu-labeled anti-phospho peptide antibody to the phosphorylated U Light labeled peptide gives rise to a FRET-signal. Binding of an inhibitor to the kinase prevents phosphorylation of the ULight-MBP Substrat, resulting in a loss of FRET.
(§4) The compounds of general formula (I) summarized in Table 5 were diluted from a 10 mM DMSO stock solution 1:10 in a total volume of 15 μL DMSO. This compound predilution was then serial diluted 1:3 over 8 steps in DMSO and briefly spun down. Each compound solution was now diluted 1:20 in Enzymatic Buffer (HEPES: 50 mM, pH: 7.5; MgCl2: 10 mM; EGTA: 1 mM; DTT: 2 mM; Tween-20: 0.01%), mixed thoroughly and spun down. For every sample, 2 μL of the diluted compound were mixed with 6 μL CDK/Cyclin/Substrat solution and […] in a well of a small volume 384 well plate (Corning Incorporated, Corning, N.Y., USA; order no. 3673). […] For positive controls, in each well 2 μL of DMSO solution (1% final DMSO assay concentration) was mixed with 6 μL CDK/Cyclin/Substrat (appropriate final concentration see Table 3) and 2 μL Tracer ATP solution (appropriate final concentration see Table 3). Positive and negative controls were calculated from at least 8 different sample wells. The 384 well plates were mixed in a Teleshaker plate mixer (Beckman Coulter, Brea, Calif., USA) at 2000 rpm for 40 sec, and incubated for 1 h at room temperature. Before reading, 10 μL detection buffer (Lance Detection Buffer 1×; EDTA: […]; Eu-Anti-P-MBP: see Table 3) was added. The FRET signal was measured at 340 nm excitation, 665 nm and 615 nm emission (for the kinase tracer and LanthaScreen Eu-AB, respectively) with an Envision spectrophotometer (Perkin Elmer, Waltham, Mass., USA) with 50 μs delay and 300 μs integration time. IC50 values were determined from the sigmoidal dose response curves with the software Quattro Workflow (Quattro GmbH, Munich, Germany).

CDK9 = target: T3, CDK9 (Homo sapiens, UniProt P50750); test: Lance Ultra KinaSelect Assay, CDK9; assay type: biochemical; conditions: read-out: Inhibition (IC50) CDK9
T3 construct: purchased Invitrogen
T3 sequence (P50750 whole entry): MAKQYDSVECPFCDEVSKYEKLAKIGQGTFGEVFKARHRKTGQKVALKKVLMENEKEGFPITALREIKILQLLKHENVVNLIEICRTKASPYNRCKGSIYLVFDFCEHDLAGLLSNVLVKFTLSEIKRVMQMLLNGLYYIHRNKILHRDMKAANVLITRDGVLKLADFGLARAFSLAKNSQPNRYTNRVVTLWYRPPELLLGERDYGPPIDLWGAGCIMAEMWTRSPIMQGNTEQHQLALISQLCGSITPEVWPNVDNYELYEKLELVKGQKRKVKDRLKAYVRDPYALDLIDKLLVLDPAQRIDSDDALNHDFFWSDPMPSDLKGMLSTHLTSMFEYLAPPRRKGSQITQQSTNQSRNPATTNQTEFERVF
Experimental: as §3, §4

CDK9/Cyclin T1 = target: T4, CDK9/Cyclin T1 (Homo sapiens, UniProt P50750); test: LanthaScreen Eu Kinase Binding Assay, CDK9/Cyclin T1; conditions: tracer 236, read-out: Affinity (Kd) CDK9/Cyclin T1
T4 construct: purchased Invitrogen
T4 sequence (P50750 whole entry): as above
T4 sequence (O60563 whole entry partner): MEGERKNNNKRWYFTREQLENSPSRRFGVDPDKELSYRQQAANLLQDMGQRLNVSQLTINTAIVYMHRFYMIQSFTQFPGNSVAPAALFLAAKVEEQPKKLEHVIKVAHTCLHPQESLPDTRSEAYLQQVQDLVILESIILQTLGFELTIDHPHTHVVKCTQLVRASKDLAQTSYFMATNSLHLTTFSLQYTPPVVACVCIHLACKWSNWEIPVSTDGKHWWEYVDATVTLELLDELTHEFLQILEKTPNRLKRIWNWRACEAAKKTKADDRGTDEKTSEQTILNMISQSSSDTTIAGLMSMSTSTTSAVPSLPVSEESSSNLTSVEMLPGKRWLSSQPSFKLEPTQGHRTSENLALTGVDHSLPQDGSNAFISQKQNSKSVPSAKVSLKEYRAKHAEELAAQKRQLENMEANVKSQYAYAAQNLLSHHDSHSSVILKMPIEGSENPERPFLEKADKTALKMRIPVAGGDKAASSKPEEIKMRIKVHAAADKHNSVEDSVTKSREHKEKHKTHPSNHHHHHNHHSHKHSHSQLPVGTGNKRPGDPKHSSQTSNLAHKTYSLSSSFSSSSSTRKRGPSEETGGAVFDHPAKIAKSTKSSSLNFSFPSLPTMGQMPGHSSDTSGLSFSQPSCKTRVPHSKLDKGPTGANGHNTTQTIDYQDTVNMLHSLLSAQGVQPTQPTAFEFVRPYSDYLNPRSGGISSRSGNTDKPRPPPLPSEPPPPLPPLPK
Experimental: as §1, §2

CDK2/CyclinA [4] = target: T1, CDK2/CyclinA; test: Lance Ultra KinaSelect Assay, CDK2; assay type: biochemical; conditions: ATP 3 μM, read-out: Inhibition (IC50) CDK2
Experimental: as §3, §4

| Kd (CDK2/CyclinA [1]) | Kd (CDK7/CyclinH/Mat1 [2]) | IC50 (CDK7/CyclinH/Mat1 [3]) | IC50 (CDK9) | Kd (CDK9/Cyclin T1) | IC50 (CDK2/CyclinA [4]) | Compound |
| --- | --- | --- | --- | --- | --- | --- |
| 237 nM | > 10000 nM | > 10000 nM | 190 nM | 43.7 nM | 259 nM | COc1ccccc1-c1ncnc(Nc2ccc(CS(N)(=O)=O)cc2)n1 [Compound T1, 4-[(4-(2-Methoxyphenyl)-1,3,5-triazin-2-yl)amino]benzenemethanesulfonamide] |
| 851 nM | > 10000 nM | > 10000 nM | 24.7 nM | 6.9 nM | 1770 nM | COc1ccccc1-c1ncnc(Nc2cccc(S(C)(=O)=O)c2)n1 [Compound S1, 4-(2-Methoxyphenyl)-N-(3-(methylsulfonyl)phenyl)-1,3,5-triazin-2-amine] |
